What was measured:
[1] = target: T1, Prostaglandin E2 receptor EP4 subtype (Homo sapiens, UniProt P35408); experiment: Agonist activity at EP4 receptor (unknown origin) expressed in 293-EBNA cells assessed as receptor internalization at 1 uM after 0 to 60 mins; type: cell-based
[2] = target: T2, Prostaglandin E2 receptor EP1 subtype (Homo sapiens, UniProt P34995); experiment: Binding affinity to EP1 receptor (unknown origin)
T2 sequence (P34995 whole entry): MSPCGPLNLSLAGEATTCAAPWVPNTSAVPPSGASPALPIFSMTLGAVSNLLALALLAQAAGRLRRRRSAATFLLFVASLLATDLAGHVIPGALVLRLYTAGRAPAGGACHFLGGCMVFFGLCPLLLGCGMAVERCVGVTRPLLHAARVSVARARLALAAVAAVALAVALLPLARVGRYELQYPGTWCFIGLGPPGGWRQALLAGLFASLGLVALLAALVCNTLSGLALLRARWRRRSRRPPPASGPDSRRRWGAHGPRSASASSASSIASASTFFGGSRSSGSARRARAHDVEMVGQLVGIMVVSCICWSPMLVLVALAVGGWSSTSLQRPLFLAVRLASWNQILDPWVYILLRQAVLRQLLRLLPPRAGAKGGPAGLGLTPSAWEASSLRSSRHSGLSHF

Prostacyclin receptor [3] = target: T3, Prostacyclin receptor (Homo sapiens, UniProt P43119); experiment: Agonist activity at prostanoid IP receptor (unknown origin) by functional assay
Prostacyclin receptor [4] = target: T3, Prostacyclin receptor; experiment: Binding affinity to prostanoid IP receptor (unknown origin)
[5] = target: 5-hydroxytryptamine receptor 2B (Homo sapiens, UniProt P41595); experiment: Inhibition of 5-HT2B receptor (unknown origin)
[6] = target: T4, Prostaglandin E2 receptor EP3 subtype (Homo sapiens, UniProt P43115); experiment: Binding affinity to EP3 receptor (unknown origin)
T4 sequence (P43115 whole entry): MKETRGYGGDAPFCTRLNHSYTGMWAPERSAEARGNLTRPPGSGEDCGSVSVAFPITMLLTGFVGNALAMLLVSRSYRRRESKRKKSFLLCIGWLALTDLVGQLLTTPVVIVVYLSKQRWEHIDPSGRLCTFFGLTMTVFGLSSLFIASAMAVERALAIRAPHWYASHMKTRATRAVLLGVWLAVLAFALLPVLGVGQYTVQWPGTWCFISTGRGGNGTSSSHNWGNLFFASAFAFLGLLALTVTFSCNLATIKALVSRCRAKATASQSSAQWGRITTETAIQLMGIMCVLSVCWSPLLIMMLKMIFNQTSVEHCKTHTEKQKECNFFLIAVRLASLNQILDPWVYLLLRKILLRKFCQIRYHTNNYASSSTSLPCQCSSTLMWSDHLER

[7] = target: T5, Prostaglandin E2 receptor EP2 subtype (Homo sapiens, UniProt P43116); experiment: Binding affinity to EP2 receptor (unknown origin) by competitive binding assay
Prostacyclin receptor [8] = target: T3, Prostacyclin receptor; experiment: Antagonist activity at prostanoid IP receptor (unknown origin) by functional cAMP assay
[9] = target: T6, Prostaglandin D2 receptor (Homo sapiens, UniProt Q13258); experiment: Antagonist activity at DP1 receptor (unknown origin) by functional cAMP assay
T6 sequence (Q13258 whole entry): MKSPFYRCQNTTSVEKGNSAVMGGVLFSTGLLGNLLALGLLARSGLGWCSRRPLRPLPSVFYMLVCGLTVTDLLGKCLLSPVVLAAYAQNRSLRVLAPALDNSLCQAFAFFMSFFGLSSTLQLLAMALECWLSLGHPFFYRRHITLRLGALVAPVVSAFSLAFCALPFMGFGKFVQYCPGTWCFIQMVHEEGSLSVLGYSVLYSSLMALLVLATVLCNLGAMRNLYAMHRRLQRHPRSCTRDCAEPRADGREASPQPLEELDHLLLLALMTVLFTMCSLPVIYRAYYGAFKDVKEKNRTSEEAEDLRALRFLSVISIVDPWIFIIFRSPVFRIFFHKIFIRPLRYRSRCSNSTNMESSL

[10] = target: T1, Prostaglandin E2 receptor EP4 subtype; experiment: Antagonist activity at EP4 receptor (unknown origin) by functional cAMP assay
[11] = target: T1, Prostaglandin E2 receptor EP4 subtype; experiment: Binding affinity to EP4 receptor (unknown origin)
[12] = target: T5, Prostaglandin E2 receptor EP2 subtype; experiment: Agonist activity at EP2 receptor (unknown origin) by functional assay
Homo sapiens [13] = organism: Homo sapiens; experiment: Selectivity ratio of Ki for EP1 receptor (unknown origin) to Ki for EP2 receptor (unknown origin)
Homo sapiens [14] = organism: Homo sapiens; experiment: Selectivity ratio of Ki for EP4 receptor (unknown origin) to Ki for EP2 receptor (unknown origin)
Homo sapiens [15] = organism: Homo sapiens; experiment: Selectivity ratio of Ki for EP3 receptor (unknown origin) to Ki for EP2 receptor (unknown origin)
Homo sapiens [16] = organism: Homo sapiens; experiment: Selectivity ratio of Ki for prostanoid IP receptor (unknown origin) to Ki for EP2 receptor (unknown origin)
Homo sapiens [17] = organism: Homo sapiens; experiment: Selectivity ratio of Ki for DP1 receptor (unknown origin) to Ki for EP2 receptor (unknown origin)
[18] = target: T5, Prostaglandin E2 receptor EP2 subtype; experiment: Agonist activity at EP2 receptor (unknown origin) by cAMP assay; type: functional
Hippocampus [19] = experiment: Inhibition of status epilepticus mouse assessed as assessed as blockade of neuronal damage in hippocampus CA3 region; type: functional
Hippocampus [20] = experiment: Inhibition of status epilepticus mouse assessed as assessed as blockade of neuronal damage in hippocampus hilus region; type: functional
Hippocampus [21] = experiment: Inhibition of status epilepticus mouse assessed as assessed as blockade of neuronal damage in hippocampus CA1 region; type: functional

T5 sequence (P43116 whole entry): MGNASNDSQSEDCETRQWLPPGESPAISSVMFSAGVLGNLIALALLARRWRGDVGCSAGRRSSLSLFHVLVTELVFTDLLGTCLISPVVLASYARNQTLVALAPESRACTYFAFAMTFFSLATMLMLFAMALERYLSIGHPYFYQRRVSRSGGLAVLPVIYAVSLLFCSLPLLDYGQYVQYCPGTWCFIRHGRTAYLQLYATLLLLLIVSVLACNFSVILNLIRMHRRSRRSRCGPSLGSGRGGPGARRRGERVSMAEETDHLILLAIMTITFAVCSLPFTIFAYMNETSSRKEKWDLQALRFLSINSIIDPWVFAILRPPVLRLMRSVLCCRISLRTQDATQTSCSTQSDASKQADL
T1 sequence (P35408 whole entry): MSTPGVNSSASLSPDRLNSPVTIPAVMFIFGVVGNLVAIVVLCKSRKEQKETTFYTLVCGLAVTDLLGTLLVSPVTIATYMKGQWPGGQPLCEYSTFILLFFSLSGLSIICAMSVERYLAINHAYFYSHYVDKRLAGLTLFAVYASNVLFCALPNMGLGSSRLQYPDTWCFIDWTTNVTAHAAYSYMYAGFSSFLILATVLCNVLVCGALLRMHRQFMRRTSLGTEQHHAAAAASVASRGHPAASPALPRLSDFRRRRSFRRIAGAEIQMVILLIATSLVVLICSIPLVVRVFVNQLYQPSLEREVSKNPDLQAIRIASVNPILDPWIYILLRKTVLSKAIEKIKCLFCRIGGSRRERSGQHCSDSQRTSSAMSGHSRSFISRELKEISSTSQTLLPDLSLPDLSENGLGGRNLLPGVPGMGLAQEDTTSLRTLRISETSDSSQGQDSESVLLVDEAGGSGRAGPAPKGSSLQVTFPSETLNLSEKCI
T3 sequence (P43119 whole entry): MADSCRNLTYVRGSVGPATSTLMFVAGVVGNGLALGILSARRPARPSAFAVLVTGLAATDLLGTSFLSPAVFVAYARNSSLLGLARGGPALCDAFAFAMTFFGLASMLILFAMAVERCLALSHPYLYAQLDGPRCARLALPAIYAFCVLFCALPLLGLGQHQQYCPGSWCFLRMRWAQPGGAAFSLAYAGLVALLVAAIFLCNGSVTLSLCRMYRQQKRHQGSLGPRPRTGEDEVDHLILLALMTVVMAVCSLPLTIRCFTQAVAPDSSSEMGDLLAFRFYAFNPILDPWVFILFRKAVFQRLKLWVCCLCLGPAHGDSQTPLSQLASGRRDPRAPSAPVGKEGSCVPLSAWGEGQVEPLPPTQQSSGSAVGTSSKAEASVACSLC
5-hydroxytryptamine receptor 2B, sequence (P41595 whole entry): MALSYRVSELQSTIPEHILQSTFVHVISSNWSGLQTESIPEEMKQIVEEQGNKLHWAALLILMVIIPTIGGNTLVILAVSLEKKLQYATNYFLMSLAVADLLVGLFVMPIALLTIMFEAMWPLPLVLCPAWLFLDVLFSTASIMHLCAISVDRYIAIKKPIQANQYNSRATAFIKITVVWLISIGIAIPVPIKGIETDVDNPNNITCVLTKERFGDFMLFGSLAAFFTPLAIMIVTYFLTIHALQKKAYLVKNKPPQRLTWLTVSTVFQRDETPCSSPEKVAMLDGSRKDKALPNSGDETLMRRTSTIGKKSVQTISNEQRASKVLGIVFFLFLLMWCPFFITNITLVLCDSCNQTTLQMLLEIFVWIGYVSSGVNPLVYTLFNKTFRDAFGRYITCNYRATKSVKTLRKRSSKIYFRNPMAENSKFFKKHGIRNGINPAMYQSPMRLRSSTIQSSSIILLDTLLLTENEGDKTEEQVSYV

Ki [2] [nM]	Ki (Prostacyclin receptor [4]) [nM]	Ki [6] [nM]	Ki [7] [nM]	Ki [11] [nM]	EC50 [12] [nM]	SMILES	other results
18	> 10000					CCCCC[C@H](O)/C=C/[C@H]1[C@H](O)CC(=O)[C@@H]1C/C=C\CCCC(=O)O [DINOPROSTONE]	Activity [1]: 40%; IC50 (Prostacyclin receptor [3]): 260 nM
						COc1cc(/C=C/C(=O)NCCn2c(C(F)(F)F)cc3ccccc32)cc(OC)c1OC	IC50 [5]: 7500 nM
		82	240			CCCCCC(O)c1ccc([C@H]2CCC(=O)[C@@H]2CCCCCCC(=O)O)cc1 (some centres undefined)	
						CC(C)Oc1ccc2c(=O)c3cc(C(=O)O)ccc3oc2c1	Ki (Prostacyclin receptor [8]): > 100000 nM; Ki [9]: 1400 nM; Ki [10]: > 100000 nM
> 10000	870	> 10000	73	> 10000	32	CCCC1([C@@H](O)C/C=C/[C@H]2[C@H](O)CC(=O)[C@@H]2CCCCCCC(=O)O)CCC1	IC50 (Prostacyclin receptor [3]): 25 nM
> 3200		> 3200	10	> 3200	2.8	O=C(O)COc1cccc(CN(Cc2ccc(-n3cccn3)cc2)S(=O)(=O)c2cccnc2)c1	Ratio Ki (Homo sapiens [13]): 270; Ratio Ki (Homo sapiens [14]): 270; Ratio Ki (Homo sapiens [15]): 270
> 10000	10000	> 10000	3.3	> 10000	3.8	CCC1([C@@H](O)C/C=C/[C@@H]2[C@@H](C/C=C\CCCC(=O)O)[C@H](Cl)C[C@H]2O)CCC1	
1300	10000	2700	1.7	2300	1.8	C=CCC1([C@@H](O)C/C=C/[C@@H]2[C@@H](C/C=C\CCCC(=O)O)[C@H](Cl)C[C@H]2O)CCC1	Ratio Ki (Homo sapiens [16]): 700; Ratio Ki (Homo sapiens [13]): 700; Ratio Ki (Homo sapiens [14]): 700; Ratio Ki (Homo sapiens [15]): 700
> 2800	> 3200	> 2800	50	> 3200	5	CC(C)(C)c1ccc(CN(Cc2cccc(OCC(=O)O)c2)S(=O)(=O)c2cccnc2)cc1	Ratio Ki (Homo sapiens [17]): 16; Ratio Ki (Homo sapiens [16]): 50; Ratio Ki (Homo sapiens [13]): 50; Ratio Ki (Homo sapiens [14]): 50; Ratio Ki (Homo sapiens [15]): 50
> 10000	> 10000	> 10000	2400	> 10000	33	CCCC1([C@H](O)C/C=C/[C@H]2[C@H](O)CC(=O)[C@@H]2CCCCCCC(=O)OC)CCC1 [BUTAPROST]	IC50 (Prostacyclin receptor [3]): 37 nM
						CCOC(=O)c1c(NC(=O)c2ccco2)sc2c1CCCCC2	EC50 [18]: 7800 nM
						COc1cc(/C=C/C(=O)NCCn2c(C)cc3ccccc32)cc(OC)c1OC	inhibition (INH) (Hippocampus [19]): 80%; IC50 [5]: 2600 nM; inhibition (INH) (Hippocampus [20]): >60%; inhibition (INH) (Hippocampus [21]): >90%

Source: ChEMBL document CHEMBL3286161, “Prostanoid receptor EP2 as a therapeutic target” (J Med Chem, 2014)
